The numbers were not newly measured in patent US20020198176A1, “Treatment of psoriasis with matrix metalloproteinase inhibitors” (priority 2000, published 2002), which cites them from elsewhere.

pIC50: −log10 of the molar value.

This data set deals with MMP. Particulars: in vitro; read-out: IC50 (50% reduction of the MMP enzymatic activity in vitro).

`O=C(C[C@H](CSc1ccccc1)C(=O)O)c1ccc(-c2ccc(Cl)cc2)cc1` [BAY 12-9566]: the pIC50 (in general, the IC50 on a negative log10 scale, so that one unit is a factor of ten) was 4.22 to 5.66.
